“Also recorded” adds a separate entry of the source.
Columns and labels:
Type in all cases: in vivo, rat
catalase = assay: Catalase activity in detrusor smooth muscle; settings: aged rats; oral 8-AG 5 mg/kg/day, 6 weeks
bladder blood flow = assay: Laser Doppler flowmeter bladder blood flow, aged rats; settings: oral 8-AG 5 mg/kg/day, 6 weeks, compared with young rats
Excerpt: Vascular Changes: Bladders that had been perfused transcardially with PBS buffer containing 20 nm yellow-green fluorescent beads (THERMO FISHER®, F8787) to highlight the vasculature were fixed then cleared by removing lipids and dissolving light-absorbing chromophores within the tissue. Volumetric data were acquired using a Caliber ID RS-G4 ribbon scanning confocal microscope (NIKON® Inc, Tokyo, Japan), which can acquire large-area images (uses a high nA (1.0) long working distance (8 mm) with low magnification (20×)). This affords the advantage of interrogating whole tissues in a three-dimensional environment without the need to section. Real-time blood perfusion (1 mm3 tissue) was accomplished using a BLF22D laser Doppler flowmeter (Transonic Systems, Inc) with a surface probe (TypeS-APLPHS) applied to the serosal surface of the bladder (apex and neck) wall using Doppler light shift from moving RBCs to analyze flow by the Bonner algorithm. This method gives robust, non-invasive microvascular flow signals in the bladder wall of anesthetized rats.

CYP-treated rats = assay: Voiding analysis in cyclophosphamide (CYP) cystitis model; settings: CYP (75 mg/kg i.p.) female Sprague Dawley rats; oral 8-AG 5 mg/kg/day starting one week prior to CYP
Experimental: (§1) Animals: Female Sprague Dawley rats were employed in this example (Charles River; Wilmington, Mass.). Three groups of animals were included. Group 1 received an i.p. injection of saline and was used as a control; groups 2 and 3 received an i.p. injection of cyclophosphamide (CYP, SIGMA-ALDRICH®, St Louis, Mo., day 0, 3, 6, sacrifice day 8, 75 mg/kg, i.p.) with group 3 treated with oral 8-AG (5 mg/kg/day; starting one week prior to CYP). CYP induced bladder inflammation and is a well-established pre-clinical model for BPS/IC.
Voiding Analysis: Untreated, CYP-treated, and 8-AG-treated CYP rats were placed in metabolic cages (24 hr; once per week) for the duration of the study. The light cycle was from 7:00 AM to 7:00 PM, and food and water were provided ad libitum. […] Data were averaged for 24 h and analyzed for 12-h periods during the day (7:00 AM-7:00 PM) and night (7:00 PM-7:00 AM). Voiding frequency, total voided volume, and volume per void were analyzed. Voiding frequency was calculated as the number of voiding events per hour during 24 hr and during the 12-hr day and 12-hr night periods. Volume per void, which defines bladder capacity, was calculated as an average of the voids occurring during these periods.

IL-1beta = assay: RT-qPCR of bladder IL-1beta mRNA in CYP cystitis model; settings: CYP (75 mg/kg i.p.) female Sprague Dawley rats; oral 8-AG 5 mg/kg/day starting one week prior to CYP
Experimental: as §1
RT-qPCR: Total RNA was isolated from bladders using TRIZOL® Reagent (THERMO FISHER SCIENTIFIC®; Waltham, Mass.) according to the manufacturer's instructions. The cDNA was synthesized using ISCRIPT™ cDNA synthesis kit (BIO-RAD®). qPCR analysis was performed using Power SYBR™ Green PCR Master Mix (THERMO FISHER SCIENTIFIC®) in the APPLIED BIOSYSTEMS® QUANTSTUDIO™ 3 Real-Time PCR System (THERMO FISHER SCIENTIFIC®). The primers used were as follows: for IL-1beta, 5′-[…]-3′ (forward; SEQ ID NO: 1) and 5′-[…]-3′ (reverse; SEQ ID NO: 2); for MCP-1, 5′-[…]-3′ (forward; SEQ ID NO: 3) and 5′-[…]-3′ (reverse; SEQ ID NO: 4); for β-actin, 5′-ACTCTTCCAGCCTTCCTTC-3′ (forward; SEQ ID NO: 5) and 5′-[…]-3′ (reverse; SEQ ID NO: 6). The threshold cycle (Ct) for target was subtracted from Ct for β-actin to give ΔCt. Results are expressed as 2AC.

Nc1nc2[nH]c(N)nc2c(=O)[nH]1 [8-AG, 8-Aminoguanine]
catalase activity in detrusor smooth muscle (catalase): levels similar to the younger state; also recorded: restored these biomarkers to that of a younger state | bladder blood flow (Doppler flowmeter) (bladder blood flow): no significant difference; also recorded: reversed to a younger state | intercontraction interval (CYP-treated rats): attenuates | voiding frequency (CYP-treated rats): attenuates | IL-1beta mRNA expression in bladder (IL-1beta): suppressed; also recorded: near the detection limit; also recorded: nearly abolished

— patent US20220054494A1, “METHODS FOR TREATING BLADDER AND URETHRA DYSFUNCTION AND DISEASE” (University of Pittsburgh - Of the Commonwealth System of …, priority 2019, published 2022)
